Source: patent US20110112308A1 (NOVARTIS AG, priority 2006, published 2011)
Structures can show the parent of a compound that is named as a salt. Values belong to the compound of their own block, whether it stands above or below them.

What was measured:
[1] = Solid samples held at 93% r.h. (XRPD, TGA); assay type: physicochemical; conditions: for Solid State (EQ 93% r.h.) Crystallinity by XRPD: either 7 or 10 days
Experimental: (§1) An approximate solubility of the below-listed salts was determined in water and at pH 1 by suspending 5-15 mg of the salt in 1 mL of solvent. The samples were allowed to equilibrate at ambient temperature for at least 20 hours. The supernatant was filtered and used for the solubility determination, which was done gravimetrically, for the aqueous solubility, and by UV-VIS spectroscopy for pH 1. The solid residue was analyzed by XRPD. […] They were subsequently analyzed by XRPD and TGA, if the latter deemed necessary. Only irreversible or slowly reversible events can be detected.

[2] = Intrinsic dissolution rate, rotation disk method; assay type: physicochemical
Experimental: Intrinsic Dissolution: […] […] Pellets of the other salts remained intact for at least several minutes enabling the determination of the intrinsic dissolution rate. Dissolution rate studies were performed using the rotation disk method ([…] Instrument). A single rotation speed of 200 r.p.m. was used to dissolve drug substance into a 500 mL vessel at 37° C. The solution was continuously pumped through a UV cell measurement and returned to the dissolution vessel.

[3] = Stability of mixtures with excipients; assay type: physicochemical
Experimental: (§2) All samples were prepared/diluted to a concentration of 0.2 mg/mL in methanol prior to analysis by HPLC. A freshly prepared sample of each salt was used as the reference standard for external standard calibration analysis.

[4] = Solution stability (HPLC); assay type: physicochemical
Experimental: as §2

Solid-state stability = assay type: physicochemical; conditions: for Bulk stability (XRPD): 1 week
Experimental: as §2

[5] = Approximate solubility in water and at pH 1 (supplemental testing); assay type: physicochemical; conditions: for Form by XRPD of solid residue, Water: after equilibration in water > 20 hours
Experimental: as §1

[6] = Solubility, 24-hour equilibration at room temperature; assay type: physicochemical
Experimental: Aqueous Solubility: A carefully weighted amount (20-50 mg) of sample is dissolved in 1 ml of solvent with 24-hour equilibration at room temperature. The solubility was determined either gravimetrically or by UV-VIS spectrometry. The pH of the clear solution was also measured. However, the difficulty of determining salt solubilities in water should be stressed, since upon dissolution dissociation to the free form is possible, which affects both the solubility and the pH. It's not unlikely that attempts to make solutions of a salt at a concentration well below the reported solubility of the salt to be unsuccessful (for a full discussion see: M. Pudipeddi, A. T. M. Serajuddin, D. J. W. Grant, and P. H. Stahl in “Handbook of Pharmaceutical Salts Properties Selection and Use” page 27 and references therein).

[7] = Equilibration in solvents and buffers: form conversion
[8] = Mixture 1: 50% PVP + 50% Crospovidone, 50° C./75% r.h., 2 weeks
[9] = Mixture 2: 50% Starch 1500 + 5% MCC 102, 50° C./75% r.h., 2 weeks
[10] = Mixture 3: 5% PVP + 5% Crospovidone + 10% Starch 1500 + 80% MCC 102, 50° C./75% r.h., 2 weeks
[11] = Mixture 4: 99% Lactose + 1% BHT/BHA, 50° C./75% r.h., 2 weeks
[12] = Mixture 5: 99% Mannitol + 1% BHT/BHA, 50° C./75% r.h., 2 weeks
[13] = Mixture 6: 50% Mannitol + 47% HPCLH21 + 1% BHT/BHA + 2% Magnesium Stearate, 50° C./75% r.h., 2 weeks
[14] = Mixture 7: 50% Cetyl Alcohol + 49% HPCLH21 + 1% Magnesium Stearate, 50° C./75% r.h., 2 weeks
[15] = Mixture 8: 100% PEG 3350, 50° C./75% r.h., 2 weeks
[16] = 2 mg/mL in methanol, 1 week at 50° C.
[17] = 2 mg/mL in water, 1 week at 50° C.
[18] = 2 mg/mL, 100 mM lactate buffer pH 3.5, 1 week at 50° C.
[19] = 2% in 0.5% HPMC 4000, 1 day at RT
[20] = 2% in 0.5% Klucel HF, 1 day at RT
[21] = 2% in 0.8% Tween 80, 1 day at RT
[22] = 5% solution, 1 day at RT (diluted 1:100 in pH 6.8 buffer)
[23] = Bulk stability, 2 weeks, 50° C.
[24] = Bulk stability, 2 weeks, 50° C./20% water
[25] = Bulk stability, 2 weeks, 50° C./75% r.h.
[26] = Light study, 1200 kLux (300-800 nm)

Compound: CC(=O)O.Cc1[nH]c2ccccc2c1CCNCc1ccc(/C=C/C(=O)NO)cc1 [Acetate, 1:1 acetate salt of N-hydroxy-3-[4-[[[2-(2-methyl-1H-indol-3-yl)ethyl]amino]methyl]phenyl]-2E-2-propenamide]
Solid State (EQ 93% r.h.) Crystallinity by XRPD [1]: Good | Solid State (EQ 93% r.h.) Form by XRPD ([1]; either 7 or 10 days (time not given)): converted to a new form | Solid State (EQ 93% r.h.) LOD by TGA ([1]; after 93% r.h. storage, (105° C.)): LOD = 8.8%

Compound: Cc1[nH]c2ccccc2c1CCNCc1ccc(/C=C/C(=O)NO)cc1.O=C(O)c1ccccc1 [Benzoate, 1:1 benzoate salt of N-hydroxy-3-[4-[[[2-(2-methyl-1H-indol-3-yl)ethyl]amino]methyl]phenyl]-2E-2-propenamide]
Solid State (EQ 93% r.h.) Form by XRPD ([1]; 7 days): No change

Compound: 1:1 propionate salt of N-hydroxy-3-[4-[[[2-(2-methyl-1H-indol-3-yl)ethyl]amino]methyl]phenyl]-2E-2-propenamide
Solid State (EQ 93% r.h.) Crystallinity by XRPD [1]: Poor

Compound: 2:1 malate (hemi-malate) salt of N-hydroxy-3-[4-[[[2-(2-methyl-1H-indol-3-yl) ethyl]amino]methyl]phenyl]-2E-2-propenamide
approximate aqueous solubility [5]: ~1.4 mg/mL | S (approximate solubility), pH 1 ([5]; EQ t > 20 hours, ambient temperature, UV-VIS): 0.42 mg/mL | S (approximate solubility), Water ([5]; EQ t > 20 hours, ambient temperature, gravimetric): 1.38 mg/mL | Form by XRPD of solid residue, Water [5]: No change | Form by XRPD of solid residue, Water ([5]; listed as malate): No structural change | Solid State (EQ 93% r.h.) Form by XRPD ([1]; 10 days): No change

Compound: CC(O)C(=O)O.Cc1[nH]c2ccccc2c1CCNCc1ccc(/C=C/C(=O)NO)cc1 [DL-lactate salt, lactate salt of N-hydroxy-3-[4-[[[2-(2-methyl-1H-indol-3-yl)ethyl]amino]methyl]phenyl]-2E-2-propenamide]
aqueous solubility, in words [6]: excellent | intrinsic dissolution (rate), in words [2]: good | stability with all excipient mixtures tested, in words ([3]; after 2 weeks at 50° C./75% r.h.): very good stability | stability characteristics, in words ([4]; both in solution and in the solid state): very good stability

Other lines, results leading:

Solid State (EQ 93% r.h.) Form by XRPD ([1]; 10 days): No change
Compound: Cc1[nH]c2ccccc2c1CCNCc1ccc(/C=C/C(=O)NO)cc1.Cc1[nH]c2ccccc2c1CCNCc1ccc(/C=C/C(=O)NO)cc1.O=C(O)CC(=O)O [Malonate, 2:1 malonate (hemi-malonate) salt of N-hydroxy-3-[4-[[[2-(2-methyl-1H-indol-3-yl)ethyl]amino]methyl]phenyl]-2E-2-propenamide]

Solid State (EQ 93% r.h.) Form by XRPD ([1]; 7 days): No change
Compound: Cc1[nH]c2ccccc2c1CCNCc1ccc(/C=C/C(=O)NO)cc1.O=P(O)(O)O [Phosphate, 1:1 phosphate salt of N-hydroxy-3-[4-[[[2-(2-methyl-1H-indol-3-yl)ethyl]amino]methyl]phenyl]-2E-2-propenamide]

Solid State (EQ 93% r.h.) Form by XRPD ([1]; 10 days): No change
Compound: Cc1[nH]c2ccccc2c1CCNCc1ccc(/C=C/C(=O)NO)cc1.Cc1[nH]c2ccccc2c1CCNCc1ccc(/C=C/C(=O)NO)cc1.O=C(O)/C=C/C(=O)O [Fumarate, 2:1 fumarate salt (hemi-fumarate) of N-hydroxy-3-[4-[[[2-(2-methyl-1H-indol-3-yl)ethyl]amino]methyl]phenyl]-2E-2-propenamide]

Intrinsic Dissolution Rate ([2]; 0.1N HCl (Table 19)): 0.02 | Intrinsic Dissolution Rate ([2]; Water (Table 19)): 0.06 | Intrinsic Dissolution Rate ([2]; pH = 4 (Table 19)): 0.08 | % DP (total degradation products) [3, 8]: 0.6 % area | % DS (drug substance) [3, 8]: 99.4 % area | % DP (total degradation products) [3, 9]: 0.4 % area | % DS (drug substance) [3, 9]: 99.6 % area | % DP (total degradation products) [3, 10]: 0.5 % area | % DS (drug substance) [3, 10]: 99.5 % area | % DP (total degradation products) [3, 11]: 0.5 % area | % DS (drug substance) [3, 11]: 99.5 % area | % DP (total degradation products) [3, 12]: 0.5 % area | % DS (drug substance) [3, 12]: 99.5 % area | % DP (total degradation products) [3, 13]: 0.6 % area | % DS (drug substance) [3, 13]: 99.3 % area | % DP (total degradation products) [3, 14]: 0.5 % area | % DS (drug substance) [3, 14]: 99.5 % area | % DP (total degradation products) [3, 15]: 0.6 % area | % DS (drug substance) [3, 15]: 99.4 % area | % DP (total degradation products) ([3]; Standard, freshly prepared): 0.4 % area | % DS (drug substance) ([3]; Standard, freshly prepared): 99.6 % area | pH of initial mixture ([4]; 2 mg/mL in 100 mM lactate buffer, pH 3.5): 3.57 | % DP (total degradation products) [4, 16]: 0.71 % area | assay [4, 16]: [102.8] | pH of initial mixture ([4]; 2 mg/mL in water): 6.30 | % DP (total degradation products) [4, 17]: 1.22 % area | CL (appearance) [4, 17]: A↓ | assay [4, 17]: [98.85] | % DP (total degradation products) [4, 18]: 1.31 % area | CL (appearance) [4, 18]: A↓* | assay ([4]; 2 mg/mL, 100 mM lactate buffer pH 3.5, 1 week at 50° C., external standard): [99.12] | % DP (total degradation products) ([4]; 2% in 0.5% CMC, 1 day at RT): 0.49 % area | CL (appearance) ([4]; 2% in 0.5% CMC, 1 day at RT): A↓↓ | assay ([4]; 2% in 0.5% CMC, 1 day at RT): [77.50] | % DP (total degradation products) [4, 19]: 0.41 % area | assay [4, 19]: [96.42] | % DP (total degradation products) [4, 20]: 0.43 % area | assay [4, 20]: [96.99] | % DP (total degradation products) [4, 21]: 0.42 % area | assay [4, 21]: [95.06] | % DP (total degradation products) [4, 22]: 0.52 % area | CL (appearance) [4, 22]: A↓ | assay [4, 22]: [99.24] | Unstressed (% Area) ([4]; unstressed baseline of the stability study): 99.51% Area | Bulk stability (XRPD) (Solid-state stability; 80° C.): no change | Bulk stability (XRPD) (Solid-state stability; 80° C./75% r.h.): no change | % DP (total degradation products) (Solid-state stability; [23]): 0.43 % area | assay (Solid-state stability; [23]): [99.31] | % DP (total degradation products) (Solid-state stability; [24]): 0.51 % area | assay (Solid-state stability; [24]): [100.3] | % DP (total degradation products) (Solid-state stability; [25]): 0.43 % area | assay (Solid-state stability; [25]): [99.86] | % DP (total degradation products) (Solid-state stability; [26]): 1.68 % area | CL (appearance) (Solid-state stability; [26]): C (C = medium discoloration) | assay (Solid-state stability; [26]): [98.65]
Compound: CC(O)C(=O)O.Cc1[nH]c2ccccc2c1CCNCc1ccc(/C=C/C(=O)NO)cc1.O (racemic) [Monohydrate DL-lactate salt, 1:1 monohydrate DL-lactate salt of N-hydroxy-3-[4-[[[2-(2-methyl-1H-indol-3-yl)ethyl]amino]methyl]phenyl]-2E-2-propenamide]

Solid State (EQ 93% r.h.) Form by XRPD ([1]; 10 days): No change
Compound: Cc1[nH]c2ccccc2c1CCNCc1ccc(/C=C/C(=O)NO)cc1.Cc1[nH]c2ccccc2c1CCNCc1ccc(/C=C/C(=O)NO)cc1.O=C(O)CCC(=O)O [Succinate, 2:1 succinate (hemi-succinate) salt of N-hydroxy-3-[4-[[[2-(2-methyl-1H-indol-3-yl)ethyl]amino]methyl]phenyl]-2E-2-propenamide]

Solid State (EQ 93% r.h.) Form by XRPD ([1]; 10 days): No change
Compound: Cc1[nH]c2ccccc2c1CCNCc1ccc(/C=C/C(=O)NO)cc1.O=C(O)c1cc(O)ccc1O [Gentisate, 1:1 gentisate salt of N-hydroxy-3-[4-[[[2-(2-methyl-1H-indol-3-yl)ethyl]amino]methyl]phenyl]-2E-2-propenamide]

conversion upon equilibration ([7]; 0.1 N HCl): to the hydrochloride salt | conversion upon equilibration ([7]; phosphate buffer (pH=6.8)): to the free base | conversion upon equilibration ([7]; water / aqueous solutions): converts to form B
Compound: Cc1[nH]c2ccccc2c1CCNCc1ccc(/C=C/C(=O)NO)cc1 [Form A of the mesylate salt]
